This is an account of results in patent US11485736B2 (KSQ Therapeutics, Inc., priority 2018, dated 2022).

SMILES strings stand for the structures. Read-outs that look alike come from different tables or passages of the source. Bounds are passed on as bounds.

Series [1] is described as follows: Liver microsomal stability, human liver microsomes. It is filed as in vitro ADME. Particulars: 1 μM compound, NADPH, read-out: t1/2 (min) in HLM. On the procedure:
(§1) Certain Compounds of the Disclosure were assessed for ADME metabolic stability in human liver microsomes (HLM) and rat liver microsomes (RLM).
(§2) Samples were prepared by adding 222.5 μL of a master solution (100 mM phosphate buffer and 1 mg/mL liver microsomes (HLM or RLM)) and 25 μL of a 10 mM NADPH solution to incubation plates, which were then warmed for 10 min. Each compound was separately dissolved in DMSO to prepare 10 mM stock solutions, which were then diluted to 100 μM with acetonitrile. A reaction was started by adding 2.5 μL of the 100 μM solution of each compound to separate incubation plates such that the final concentration of for each compound in each plate was 1 μM.
(§3) 25 μL aliquots of each sample were taken at 0.5, 5, 10, 15, 20 and 30 minutes, and the reaction was stopped by adding 5 volumes of cold acetonitrile with IS (100 nM alprazolam, 200 nM caffeine and 100 nM tolbutamide). The samples were then centrifuged at 3,220 G for 30 minutes, and 100 μL of the supernatant fluid was mixed with 100 μL of ultra-pure H2O.
(§4) The samples were then analyzed by LC-MS/MS. Peak areas were determined from extracted ion chromatograms. Slope values (k) were determined by linear regression of the natural logarithm of the remaining percentage of the compound vs. incubation time curve. […] The in vitro half-life (min) was converted into the in vitro intrinsic clearance (in vitro CLint, in μL/min/mg protein) using the following equation: […]

Series [2] is described as follows: Liver microsomal stability, rat liver microsomes. In kind it is in vitro ADME. Particulars: 1 μM compound, NADPH, read-out: t1/2 (min) in RLM. On the procedure:
as §1, §2, §3, §4

A short description of series [3]: ADME solubility determination at pH 2.0 and pH 7.4. In kind it is physicochemical. Particulars: aqueous buffer, thermodynamic from solid, LC-MS/MS. As to the method: Certain Compounds of the Disclosure were assessed for ADME solubility at pH 2.0 and pH 7.4.
Stock solutions were prepared by adding each compound to DMSO at a concentration of 10 mM. Samples were prepared by adding 50 μL of each stock solution to separate vials. The vials were loaded onto a 96-well rack and dried. 500 μL of Phosphate Buffered Saline (PBS) pH 7.4 or PBS pH 2.0 were added into each vial. The vials were then shaken at 25° C. and 1,100 rpm for 24 hours.
After 24 hours, the vials were centrifuged at 3220 G and 25° C. for 30 minutes. The supernatant fluid was analyzed by LC-MS/MS against a standard of known concentration. The solubility of each sample was then calculated using the equation below:
[formula] where DF is the dilution factor.

Where [4] appears, read: PBS pH 2.0, shaken at 25° C. for 24 hours, read-out: Solubility at pH 2.0.
The mark [5] stands for this setting: PBS pH 7.4, shaken at 25° C. for 24 hours, read-out: Solubility at pH 7.4.

The solubility is the dissolved amount per volume that the medium holds. As to `COc1ncnc(C2CC2)c1-c1ncc2cnn([C@@H](C)c3ccc(-c4nc(C(F)(F)F)cn4C)cc3)c2n1` (single isomer, unassigned) [Example 92], the results for the half-life at 1 μM in series [1] and in series [2] were below 25 min and above 25 min, respectively. Moreover, the solubility at 24 h in series [3] (setting [4]) and in series [3] (setting [5]) was above 10 µM in each case.
Take `COc1ncnc(C2CC2)c1-c1ncc2cnn([C@H](C)c3ccc(-c4nc(C(F)(F)F)cn4C)cc3)c2n1` (single isomer, unassigned) [Example 93]: the half-life at 1 μM in series [1] and in series [2] was below 25 min in each case. For the same compound, the solubility at 24 h in series [3] (setting [4]) and in series [3] (setting [5]) was above 10 µM throughout.
With `CCn1cc(C(F)(F)F)nc1-c1ccc([C@H](C)n2ncc3cnc(-c4c(OC)ncnc4C4CC4)nc32)cc1` (single isomer, unassigned) [Example 94], the half-life at 1 μM in series [1] was above 25 min; in series [2] it was below 25 min. The solubility at 24 h is above 10 µM in series [3] (setting [4]) and below 10 µM in series [3] (setting [5]).
Turning to `CCn1cc(C(F)(F)F)nc1-c1ccc([C@@H](C)n2ncc3cnc(-c4c(OC)ncnc4C4CC4)nc32)cc1` (single isomer, unassigned) [Example 95], the half-life at 1 μM in series [1] is above 25 min; in series [2], below 25 min. In addition, the solubility at 24 h in series [3] (setting [4]) is above 10 µM; in series [3] (setting [5]), below 10 µM.
The like results for `CCn1cc(C(F)(F)F)nc1-c1ccc([C@H](C)n2ncc3cnc(-c4c(OC)ncnc4C4CCC4)nc32)cc1` (single isomer, unassigned) [Example 99] were, in that order, below 25 min, below 25 min, above 10 µM and below 10 µM.
Turning to `CCn1cc(C(F)(F)F)nc1-c1ccc([C@@H](C)n2ncc3cnc(-c4c(OC)ncnc4C4CCC4)nc32)cc1` (single isomer, unassigned) [Example 100], the half-life at 1 μM in series [1] and in series [2] was below 25 min throughout. Also, the values for the solubility at 24 h in series [3] (setting [4]) and in series [3] (setting [5]) were above 10 µM and below 10 µM, respectively.
For the compound `CC(C)c1ccccc1-c1ncc2cnn(Cc3ccc(-c4nc(C(F)(F)F)cn4C)cc3)c2n1` [Example 1, 6-(2-isopropylphenyl)-1-(4-(1-methyl-4-(trifluoromethyl)-1H-imidazol-2-yl)benzyl)-1H-pyrazolo[3,4-d]pyrimidine], the half-life at 1 μM in series [1] and in series [2] was below 25 min each time. Also, the solubility at 24 h in series [3] (setting [4]) and in series [3] (setting [5]) was below 10 µM each time.
Regarding `COc1ccccc1-c1ncc2cnn(Cc3ccc(-c4nc(C(F)(F)F)cn4C)cc3)c2n1` [Example 2, 6-(2-methoxyphenyl)-1-(4-(1-methyl-4-(trifluoromethyl)-1H-imidazol-2-yl)benzyl)-1H-pyrazolo[3,4-d]pyrimidine], the half-life at 1 μM in series [1] and in series [2] was below 25 min in each case. Also, the solubility at 24 h in series [3] (setting [4]) is above 10 µM; in series [3] (setting [5]), below 10 µM.
Turning to `Cn1cc(C(F)(F)F)nc1-c1ccc(Cn2ncc3cnc(-c4ccccc4S(C)(=O)=O)nc32)cc1` [Example 3, 1-(4-(1-methyl-4-(trifluoromethyl)-1H-imidazol-2-yl)benzyl)-6-(2-(methylsulfonyl)-phenyl)-1H-pyrazolo[3,4-d]pyrimidine], the half-life at 1 μM in series [1] and in series [2] was above 25 min throughout. Besides, the solubility at 24 h in series [3] (setting [4]) is above 10 µM; in series [3] (setting [5]), below 10 µM.
Take `COc1cccc(OC)c1-c1ncc2cnn(Cc3ccc(-c4nc(C(F)(F)F)cn4C)cc3)c2n1` [Example 4, 6-(2,6-dimethoxyphenyl)-1-(4-(1-methyl-4-(trifluoromethyl)-1H-imidazol-2-yl)benzyl)-1H-pyrazolo[3,4-d]pyrimidine]: the half-life at 1 μM in series [1] and in series [2] was below 25 min throughout. In addition, the solubility at 24 h in series [3] (setting [4]) is above 10 µM; in series [3] (setting [5]), below 10 µM.
With `COc1cccc(C)c1-c1ncc2cnn(Cc3ccc(-c4nc(C(F)(F)F)cn4C)cc3)c2n1` [Example 5, 6-(2-methoxy-6-methylphenyl)-1-(4-(1-methyl-4-(trifluoromethyl)-1H-imidazol-2-yl)benzyl)-1H-pyrazolo[3,4-d]pyrimidine], the half-life at 1 μM in series [1] and in series [2] was below 25 min throughout. Further, the solubility at 24 h is above 10 µM in series [3] (setting [4]) and below 10 µM in series [3] (setting [5]).
Take `COc1nccc(C)c1-c1ncc2cnn(Cc3ccc(-c4nc(C(F)(F)F)cn4C)cc3)c2n1` [Example 6, 6-(2-methoxy-4-methylpyridin-3-yl)-1-(4-(1-methyl-4-(trifluoromethyl)-1H-imidazol-2-yl)benzyl)-1H-pyrazolo[3,4-d]pyrimidine]: the half-life at 1 μM in series [1] and in series [2] was below 25 min throughout. Further, the solubility at 24 h in series [3] (setting [4]) is above 10 µM; in series [3] (setting [5]), below 10 µM.
With `CCS(=O)(=O)c1ccccc1-c1ncc2cnn(Cc3ccc(-c4nc(C(F)(F)F)cn4C)cc3)c2n1` [Example 7, 6-(2-(ethylsulfonyl)phenyl)-1-(4-(1-methyl-4-(trifluoromethyl)-1H-imidazol-2-yl)benzyl)-1H-pyrazolo[3,4-d]pyrimidine], the half-life at 1 μM is above 25 min in series [1] and below 25 min in series [2]. Further, the solubility at 24 h in series [3] (setting [4]) and in series [3] (setting [5]) was below 10 µM throughout.
Take `CC(C)c1ncccc1-c1ncc2cnn(Cc3ccc(-c4nc(C(F)(F)F)cn4C)cc3)c2n1` [Example 9, 6-(2-isopropylpyridin-3-yl)-1-(4-(1-methyl-4-(trifluoromethyl)-1H-imidazol-2-yl)benzyl)-1H-pyrazolo[3,4-d]pyrimidine]: the half-life at 1 μM in series [1] and in series [2] was below 25 min each time. In addition, the solubility at 24 h in series [3] (setting [4]) and in series [3] (setting [5]) was above 10 µM each time.
As to `CC(C)c1c(F)cccc1-c1ncc2cnn(Cc3ccc(-c4nc(C(F)(F)F)cn4C)cc3)c2n1` [Example 10, 6-(3-fluoro-2-isopropylphenyl)-1-(4-(1-methyl-4-(trifluoromethyl)-1H-imidazol-2-yl)benzyl)-1H-pyrazolo[3,4-d]pyrimidine], the half-life at 1 μM in series [1] and in series [2] was below 25 min each time. For the same compound, the solubility at 24 h in series [3] (setting [4]) and in series [3] (setting [5]) was below 10 µM each time.
With `COc1cccc(C2CC2)c1-c1ncc2cnn(Cc3ccc(-c4nc(C(F)(F)F)cn4C)cc3)c2n1` [Example 11, 6-(2-cyclopropyl-6-methoxyphenyl)-1-(4-(1-methyl-4-(trifluoromethyl)-1H-imidazol-2-yl)benzyl)-1H-pyrazolo[3,4-d]pyrimidine], the half-life at 1 μM in series [1] and in series [2] was below 25 min each time. The solubility at 24 h in series [3] (setting [4]) and in series [3] (setting [5]) was above 10 µM throughout.
Turning to `COc1ncnc(C2CC2)c1-c1ncc2cnn(Cc3ccc(-c4nc(C(F)(F)F)cn4C)cc3)c2n1` [Example 12, 6-(4-cyclopropyl-6-methoxypyrimidin-5-yl)-1-(4-(1-methyl-4-(trifluoromethyl)-1H-imidazol-2-yl)benzyl)-1H-pyrazolo[3,4-d]pyrimidine], the half-life at 1 μM is below 25 min in series [1] and above 25 min in series [2]. The solubility at 24 h in series [3] (setting [4]) and in series [3] (setting [5]) was above 10 µM each time.
As for `COc1ncnc(C2CC2)c1-c1ncc2cnn(Cc3ccc(-c4cn(C)c(C(F)(F)F)n4)cc3)c2n1` [Example 13], the half-life at 1 μM in series [1] and in series [2] was above 25 min in each case. In addition, the solubility at 24 h in series [3] (setting [4]) and in series [3] (setting [5]) was below 10 µM throughout.
With `COc1ncnc(C2CCC2)c1-c1ncc2cnn(Cc3ccc(-c4nc(C(F)(F)F)cn4C)cc3)c2n1` [Example 15], the half-life at 1 μM in series [1] and in series [2] was below 25 min throughout. The solubility at 24 h in series [3] (setting [4]) and in series [3] (setting [5]) was above 10 µM in each case.
For `COc1ncnc(C2CCC2)c1-c1ncc2cnn(Cc3ccc(-c4nc(C(F)(F)F)cn4C(C)C)cc3)c2n1` [Example 16], the half-life at 1 μM in series [1] and in series [2] was below 25 min each time. In addition, the solubility at 24 h in series [3] (setting [4]) was above 10 µM; in series [3] (setting [5]) it was below 10 µM.
As for `COc1ncnc(C2CC2)c1-c1ncc2cnn(Cc3ccc(-c4csc(C(F)(F)F)n4)cc3)c2n1` [Example 126], the solubility at 24 h in series [3] (setting [4]) and in series [3] (setting [5]) was below 10 µM each time.
